The subject of data set [1] is T1, PC12 cells expressing TrkA and p75^NTR.
T1 construct: host or cells: PC12 (rat pheochromocytoma)
Kind of data set: 125I-NGF receptor binding inhibition, PC12 cells. Also on record: species or system rat. Conditions: compound 50 μM; 125I-NGF 1 nM; 2 h at 4° C.; value is mean of the three replicates. The procedure: (§1) The radio-iodination and receptor binding of NGF (Sutter et al., 1979) was performed with modifications (Ross et al., 1997) as follows: Evaluation of the ability of NCP compounds to inhibit TrkA and p75^NTR binding was determined by the binding of ^125I-NGF to PC12 cells (rat pheochromocytoma cells expressing TrkA and p75^NTR obtained from ATCC) and PC12^nnr5 (rat pheocliromocytoma cells expressing p75^NTR only; obtained from Dr. L. Greene, Columbia University, NY). The p75^NTR is in a low affinity state and a high affinity state, respectively, in these cell types (Ross et al., 1998). PC12 and PC12^nnr5 cells were grown in RPMI (Sigma) with 10% heat inactivated donor horse serum and 5% fetal calf serum. Cells were harvested by replacing the medium with calcium, magnesium-free balanced salt solution (Gey's solution) and incubating at 37° C. for 15 minutes. Cells were pelleted by centrifugation and suspended in HKR buffer (10 mM Hepes [pH 7.35] containing 125 mM NaCl, 4.8 mM KCl, 1.3 mM CaCl2, 1.2 mM MgSO4, 1.2 mM KH2PO4, 1 g/L glucose and 1 g/L BSA) at a cell concentration of 2×10^6/mL and kept at 4° C. Triplicate tubes were set up for total binding, non-specific binding and binding in the presence of candidate competitor molecule (i.e., a tube for each data point). Each tube contained ^125I-NGF (at 1 nM), 400,000 cells (for a final cell concentration of 10^6/mL) and NGF (50 nM, to define non-specific binding), as required. The tubes were incubated for 2 h at 4° C. and specific binding evaluated by measuring specifically bound DPM (Ross et al., 1997). Data were analysed and the results expressed as receptor binding observed in the presence of competitor as a percentage of receptor binding in the absence of a competitor.

Data set [2] concerns T2, PC12^nnr5 cells expressing p75^NTR only.
T2 construct: PC12^nnr5 (rat pheocliromocytoma cells expressing p75^NTR only; obtained from Dr. L. Greene, Columbia University, NY); host or cells: PC12nnr5 (rat pheochromocytoma subline)
T2 sequence (P01139 122-241): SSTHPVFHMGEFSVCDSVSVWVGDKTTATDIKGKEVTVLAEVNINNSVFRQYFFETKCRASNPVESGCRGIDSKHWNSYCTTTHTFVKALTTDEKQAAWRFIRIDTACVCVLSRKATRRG
Put plainly: 125I-NGF receptor binding inhibition, PC12^nnr5 cells. Further details: species or system rat. The following applies: compound 50 μM; 125I-NGF 1 nM; 2 h at 4° C.; value is mean of the three replicates. The procedure: as §1

The conditions of data set [3]: @ 100 μM DMSO.

T1 sequence (P01139 122-241): as above

Regarding `O=C(O)CCCCN1C(=O)c2cccc3cc([N+](=O)[O-])cc(c23)C1=O` [Compound 203, N-(4-carboxybutyl)-3-nitro-1,8-naphthalimide; 2-(4-carboxybutyl)-5-nitrobenzo[d,e]isoquinoline-1,3-dione], in data set [1], the “PC12 % of Max (receptor binding in presence of competitor as percentage of binding in absence of competitor)” value is given as 36, 41, 35 = 37 % of Max. In data set [2], the “nnr5 % of Max (receptor binding in presence of competitor as percentage of binding in absence of competitor)” value was 33, 0, 18 = 17 % of Max.
As for `O=C(O)CCCCCN1C(=O)c2cccc3c([N+](=O)[O-])ccc(c23)C1=O` [Compound 224, N-(5-carboxypentyl)-4-nitro-1,8-naphthalimide; 2-(5-carboxypentyl)-6-nitrobenzo[d,e]isoquinoline-1,3-dione], the “PC12 % of Max (receptor binding in presence of competitor as percentage of binding in absence of competitor)” value in data set [1] is on record as 31, 34, 22 = 29 % of Max. In addition, the “nnr5 % of Max (receptor binding in presence of competitor as percentage of binding in absence of competitor)” value in data set [2] is recorded as 36, 35, 39 = 36 % of Max.
Turning to `O=C(O)CCCN1C(=O)c2cccc3c([N+](=O)[O-])ccc(c23)C1=O` [Compound 222, N-(3-carboxypropyl)-4-nitro-1,8-naphthalimide; 2-(3-carboxypropyl)-6-nitrobenzo[d,e]isoquinoline-1,3-dione], the Solubility in data set [3] was 222 NS (NS: Not Soluble @ 100 μM DMSO).
On to `O=C(O)CCCCCN1C(=O)c2cccc3cc([N+](=O)[O-])cc(c23)C1=O` [Compound 204, N-(5-carboxypentyl)-3-nitro-1,8-naphthalimide; 2-(5-carboxypentyl)-5-nitrobenzo[d,e]isoquinoline-1,3-dione], for which the “PC12 % of Max (receptor binding in presence of competitor as percentage of binding in absence of competitor)” value in data set [1] is recorded as 41, 41, 36 = 39 % of Max. In addition, the “nnr5 % of Max (receptor binding in presence of competitor as percentage of binding in absence of competitor)” value in data set [2] was 12, 0, 47 = 20 % of Max.
With `O=C(O)CCCCN1C(=O)c2cccc3c([N+](=O)[O-])ccc(c23)C1=O` [Compound 223, N-(4-carboxybutyl)-4-nitro-1,8-naphthalimide; 2-(4-carboxybutyl)-6-nitrobenzo[d,e]isoquinoline-1,3-dione], the “PC12 % of Max (receptor binding in presence of competitor as percentage of binding in absence of competitor)” value in data set [1] is 27, 33, 33 = 31 % of Max. Moreover, the “nnr5 % of Max (receptor binding in presence of competitor as percentage of binding in absence of competitor)” value in data set [2] is reported as 40, 41, 47 = 43 % of Max.
On to `O=C(O)CN1C(=O)c2cccc3cc([N+](=O)[O-])cc(c23)C1=O` [Compound 200, N-(1-carboxymethyl)-3-nitro-1,8-naphthalimide; 2-(1-carboxymethyl)-5-nitrobenzo[d,e]isoquinoline-1,3-dione], for which the “PC12 % of Max (receptor binding in presence of competitor as percentage of binding in absence of competitor)” value in data set [1] is 92, 87, 74 = 84 % of Max. Besides, in data set [2], the “nnr5 % of Max (receptor binding in presence of competitor as percentage of binding in absence of competitor)” value was 58, 63, 64 = 62 % of Max.
`O=C(O)CCCN1C(=O)c2cccc3cc([N+](=O)[O-])cc(c23)C1=O` [Compound 202, N-(3-carboxypropyl)-3-nitro-1,8-naphthalimide; 2-(3-carboxypropyl)-5-nitrobenzo[d,e]isoquinoline-1,3-dione]: in data set [1], the “PC12 % of Max (receptor binding in presence of competitor as percentage of binding in absence of competitor)” value is 21, 22, 30 = 24 % of Max. Also, the “nnr5 % of Max (receptor binding in presence of competitor as percentage of binding in absence of competitor)” value in data set [2] is listed as 16, 0, 0 = 5 % of Max.
As to `O=C(O)CCN1C(=O)c2cccc3c([N+](=O)[O-])ccc(c23)C1=O` [Compound 221, N-(2-carboxyethyl)-4-nitro-1,8-naphthalimide; 2-(2-carboxyethyl)-6-nitrobenzo[d,e]isoquinoline-1,3-dione], the “PC12 % of Max (receptor binding in presence of competitor as percentage of binding in absence of competitor)” value in data set [1] is 29, 32, 31 = 31 % of Max. Moreover, the “nnr5 % of Max (receptor binding in presence of competitor as percentage of binding in absence of competitor)” value in data set [2] was 41, 37, 42 = 40 % of Max.
Take `O=C(O)CN1C(=O)c2cccc3c([N+](=O)[O-])ccc(c23)C1=O` [Compound 220, N-(1-carboxymethyl)-4-nitro-1,8-naphthalimide; 2-(1-carboxymethyl)-6-nitrobenzo[d,e]isoquinoline-1,3-dione]: the “PC12 % of Max (receptor binding in presence of competitor as percentage of binding in absence of competitor)” value in data set [1] is 37, 43, 49 = 43 % of Max. Further, the “nnr5 % of Max (receptor binding in presence of competitor as percentage of binding in absence of competitor)” value in data set [2] was 21, 17, 26 = 21 % of Max. In addition, the Solubility in data set [3] was 220 NS (NS: Not Soluble @ 100 μM DMSO).
As for `O=C(O)CCN1C(=O)c2cccc3cc([N+](=O)[O-])cc(c23)C1=O` [Compound 201, N-(2-carboxyethyl)-3-nitro-1,8-naphthalimide; 2-(2-carboxyethyl)-5-nitrobenzo[d,e]isoquinoline-1,3-dione], the “PC12 % of Max (receptor binding in presence of competitor as percentage of binding in absence of competitor)” value in data set [1] was 27, 32, 41 = 33 % of Max. Besides, the “nnr5 % of Max (receptor binding in presence of competitor as percentage of binding in absence of competitor)” value in data set [2] is 30, 4, 34 = 23 % of Max.
